The values that follow come from patent US7425614B2, “Neuroprotective therapeutics preventing ERK/MAPK activation through the NMDA receptor” (Children's Medical Center Corporation, priority 2003, dated 2008).

Read-outs that look alike come from different tables or passages of the source.

One assay relates to ERK. Description: phospho-ERK immunocytochemistry in cultured hippocampal neurons. The assay is classed as cell-based, rat. The protocol: Neurons from 18 day rat embryos were dissociated using trypsin and plated on coverslips coated with poly-L-ysine in minimal essential medium (MEM) with 10% NU serum (BD Biosciences, Le Pont de Claix, France) at densities of 30,000 cells/cm^2 as described (Brewer, G. J. (1995) J. Neurosci. Res. 42, 674-683). On days 7 and 11 of culture incubation, half of the medium was changed to MEM with 2% B27 supplement (Invitrogen).
Cells were transfected with cDNA for EGFP fusion proteins (LipofectAMINE 2000; Invitrogen) or by pseudoviral infection using a Sindbis expression system (Invitrogen). Neurons were incubated with cDNA and LipofectAMINE for 2 hr, rinsed, and incubated with culture media (MEM with 2% of B27 supplement) 17 hr prior to the experiment. For viral delivery, neuronal cultures were incubated 30 min with pseudoviral constructs diluted 200-500× in culture media. Cultures were rinsed and incubated in media for 15 hr. 0.1% to 1.5% of neurons were fluorescent after expressing LipofectAMINE-delivered constructs while Sindbis infection yielded 1%-10% transfection efficiency. Most of the experiments were performed on 12-14 days in vitro (div) cultures unless otherwise indicated.
Three hours before stimulation, TTX (1 μM), CNQX (40 μM), APV (100 μM), and nimodipine (5 μM) were added to neurons. For stimulation, coverslips with neurons were transferred into the following solutions.
(1) 100 μM NMDA, 10 μM glycine, 1 μM TTX, 40 μM CNQX, 5 μM nimodipine dissolved in culture media and incubated for 3 min. […]
After stimulation, neurons were fixed with 4% formaldehyde and labeled with rabbit anti-phospho-p44/42 ERK antibody (Cell Signaling) and with mouse anti-MAP2 antibody (Sternberger Monoclonals). Cy3-conjugated goat anti-rabbit IgG and Cy5-conjugated goat antimouse IgG (Jackson Immunoresearch Laboratories, West Grove, Pa.) were secondary antibodies. NMDA and all antagonists were from Tocris Neuramin. BDNF was from Calbiochem. Images were acquired with an Olympus Fluoview-500 confocal microscope (40×; 1.0 NA) and quantified using Olympus Fluoview software. In each experiment, the pERK fluorescence of the cell soma was measured for 25 neurons taken from consecutive fields. Phospho-ERK fluorescence data were normalized to the values obtained in nontransfected cells after NMDA stimulation. The background fluorescence (mean fluorescence of nonstimulated neurons) was subtracted prior to normalization.

The next assay relates to SynGAP. Put plainly: phosphorylation of SynGAP in cultured hippocampal neurons. In kind it is cell-based, rat. The note with it: control experiments.
Assay [1] concerns CREB transcription factor. Put plainly: phosphorylation of CREB in cultured hippocampal neurons. The assay is classed as cell-based, rat. The note with it: control experiments.
In the next assay the target is T1, NR2A (Rattus norvegicus, UniProt Q00959).
T1 construct: host or cells: heterologous expression systems (not specified)
The following applies: 3 μM; heterologous expression systems; cited from earlier work.

The target in a further assay is T2, NR2B (Rattus norvegicus, UniProt P35439+Q00960).
T2 construct: host or cells: heterologous expression systems (not specified)
The following applies: 3 μM; heterologous expression systems; cited from earlier work.

The next assay relates to NMDA receptor. Description: whole-cell recordings of NMDAR-mediated currents in cultured hippocampal neurons. The assay is classed as cell-based, rat.
A further assay deals with NMDA receptors. The note with it: cited from earlier work.
The next assay addresses T3, full-length NR2B (Rattus norvegicus, UniProt Q00960).
T3 construct: In vitro translated full-length NR2B and HA-tagged RasGRF1 fragments were co-immunoprecipitated with anti-HA antibody; made in house; host or cells: cell-free in vitro translation (35S-labelled)
Description: in vitro binding of in vitro translated HA-tagged RasGRF1 fragments to full-length NR2B (co-immunoprecipitation). The note with it: epitope-tagged RasGRF1 fragments. The text has this: For in vitro translation, fragments of rat NR2B and rat RasGRF1 were made by PCR with 5′-primers containing AU1- and HA-tag encoding sequences; amplified sequences were subcloned into pcDNA3.1. For 293T transfection, the following cDNAs were used: mouse RasGRF1 in pcDNA3, GFP-rat NR2B, GFP rat NR2A in pcDNA1.1, and rat NR1 in pEGFP-C1 (Clontech). EGFP fusion constructs were made by subcloning cDNA fragments encoding different portions of NR2B and RasGRF1 into pEGFP-C1 (Clontech). EGFP fusion constructs were transferred from pEGFP into pSinRep5 and used for preparation of the Sindbis pseudovirus gene transfer system according to the manufacturer's protocol (Invitrogen, Carlsbad, Calif.).
For in vitro binding experiments, equimolar amounts of in vitro translated ^35S-labeled proteins (calculated from radioactivity of the excised protein band and cysteine content in the specific fragment) were incubated with a 3-fold molar excess of translated RasGRF1 for 30 min at 30° C., diluted with RIPA buffer, and immunoprecipitated with anti-HA-agarose (Santa Cruz). In competition experiments, RasGRF1 and NR2B were immunoprecipitated for 2 hr at 4° C. from solubilized rat brain microsomes in the presence of 10 μM NusA, 10 μM NusA-RasGRF1-BD, or 5 μM NusA-NR2B-BD.

T3 sequence (Q00960 27-1482 E1256K/V1430S/T1431A): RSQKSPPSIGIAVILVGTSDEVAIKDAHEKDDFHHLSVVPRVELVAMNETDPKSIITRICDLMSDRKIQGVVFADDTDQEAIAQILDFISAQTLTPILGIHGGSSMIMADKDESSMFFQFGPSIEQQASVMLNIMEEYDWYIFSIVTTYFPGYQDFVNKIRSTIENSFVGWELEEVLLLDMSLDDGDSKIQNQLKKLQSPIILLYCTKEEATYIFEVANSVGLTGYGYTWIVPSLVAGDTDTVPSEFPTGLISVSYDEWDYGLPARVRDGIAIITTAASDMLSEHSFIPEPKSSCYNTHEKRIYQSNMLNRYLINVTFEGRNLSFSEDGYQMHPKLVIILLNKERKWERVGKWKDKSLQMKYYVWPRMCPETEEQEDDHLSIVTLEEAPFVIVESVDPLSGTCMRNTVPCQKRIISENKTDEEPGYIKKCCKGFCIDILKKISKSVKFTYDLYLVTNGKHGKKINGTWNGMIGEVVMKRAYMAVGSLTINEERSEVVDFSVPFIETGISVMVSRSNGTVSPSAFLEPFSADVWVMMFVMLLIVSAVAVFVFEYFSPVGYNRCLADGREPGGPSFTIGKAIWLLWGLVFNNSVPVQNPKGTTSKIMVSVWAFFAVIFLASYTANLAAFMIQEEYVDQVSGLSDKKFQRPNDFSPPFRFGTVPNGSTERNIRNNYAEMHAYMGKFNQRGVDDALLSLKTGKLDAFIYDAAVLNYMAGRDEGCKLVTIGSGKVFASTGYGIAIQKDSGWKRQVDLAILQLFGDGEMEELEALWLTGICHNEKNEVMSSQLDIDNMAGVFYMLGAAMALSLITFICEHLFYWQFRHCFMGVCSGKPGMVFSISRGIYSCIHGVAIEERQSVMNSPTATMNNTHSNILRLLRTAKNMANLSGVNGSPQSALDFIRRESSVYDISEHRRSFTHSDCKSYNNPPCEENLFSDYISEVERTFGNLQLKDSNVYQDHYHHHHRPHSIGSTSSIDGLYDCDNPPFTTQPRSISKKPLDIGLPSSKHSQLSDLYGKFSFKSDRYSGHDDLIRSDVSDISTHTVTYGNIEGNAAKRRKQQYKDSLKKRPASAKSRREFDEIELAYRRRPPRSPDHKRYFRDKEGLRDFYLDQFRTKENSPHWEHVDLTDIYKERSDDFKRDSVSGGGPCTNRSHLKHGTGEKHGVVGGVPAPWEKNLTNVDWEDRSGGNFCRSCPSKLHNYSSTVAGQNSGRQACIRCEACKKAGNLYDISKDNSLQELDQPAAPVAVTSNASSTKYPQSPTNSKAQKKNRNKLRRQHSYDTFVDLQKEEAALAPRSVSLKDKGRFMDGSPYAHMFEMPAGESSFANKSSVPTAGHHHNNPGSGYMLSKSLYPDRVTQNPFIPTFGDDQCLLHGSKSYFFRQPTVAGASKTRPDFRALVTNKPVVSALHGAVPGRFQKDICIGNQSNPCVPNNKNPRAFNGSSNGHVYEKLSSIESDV
T2 sequence (Q00960 27-1482, other chains not shown): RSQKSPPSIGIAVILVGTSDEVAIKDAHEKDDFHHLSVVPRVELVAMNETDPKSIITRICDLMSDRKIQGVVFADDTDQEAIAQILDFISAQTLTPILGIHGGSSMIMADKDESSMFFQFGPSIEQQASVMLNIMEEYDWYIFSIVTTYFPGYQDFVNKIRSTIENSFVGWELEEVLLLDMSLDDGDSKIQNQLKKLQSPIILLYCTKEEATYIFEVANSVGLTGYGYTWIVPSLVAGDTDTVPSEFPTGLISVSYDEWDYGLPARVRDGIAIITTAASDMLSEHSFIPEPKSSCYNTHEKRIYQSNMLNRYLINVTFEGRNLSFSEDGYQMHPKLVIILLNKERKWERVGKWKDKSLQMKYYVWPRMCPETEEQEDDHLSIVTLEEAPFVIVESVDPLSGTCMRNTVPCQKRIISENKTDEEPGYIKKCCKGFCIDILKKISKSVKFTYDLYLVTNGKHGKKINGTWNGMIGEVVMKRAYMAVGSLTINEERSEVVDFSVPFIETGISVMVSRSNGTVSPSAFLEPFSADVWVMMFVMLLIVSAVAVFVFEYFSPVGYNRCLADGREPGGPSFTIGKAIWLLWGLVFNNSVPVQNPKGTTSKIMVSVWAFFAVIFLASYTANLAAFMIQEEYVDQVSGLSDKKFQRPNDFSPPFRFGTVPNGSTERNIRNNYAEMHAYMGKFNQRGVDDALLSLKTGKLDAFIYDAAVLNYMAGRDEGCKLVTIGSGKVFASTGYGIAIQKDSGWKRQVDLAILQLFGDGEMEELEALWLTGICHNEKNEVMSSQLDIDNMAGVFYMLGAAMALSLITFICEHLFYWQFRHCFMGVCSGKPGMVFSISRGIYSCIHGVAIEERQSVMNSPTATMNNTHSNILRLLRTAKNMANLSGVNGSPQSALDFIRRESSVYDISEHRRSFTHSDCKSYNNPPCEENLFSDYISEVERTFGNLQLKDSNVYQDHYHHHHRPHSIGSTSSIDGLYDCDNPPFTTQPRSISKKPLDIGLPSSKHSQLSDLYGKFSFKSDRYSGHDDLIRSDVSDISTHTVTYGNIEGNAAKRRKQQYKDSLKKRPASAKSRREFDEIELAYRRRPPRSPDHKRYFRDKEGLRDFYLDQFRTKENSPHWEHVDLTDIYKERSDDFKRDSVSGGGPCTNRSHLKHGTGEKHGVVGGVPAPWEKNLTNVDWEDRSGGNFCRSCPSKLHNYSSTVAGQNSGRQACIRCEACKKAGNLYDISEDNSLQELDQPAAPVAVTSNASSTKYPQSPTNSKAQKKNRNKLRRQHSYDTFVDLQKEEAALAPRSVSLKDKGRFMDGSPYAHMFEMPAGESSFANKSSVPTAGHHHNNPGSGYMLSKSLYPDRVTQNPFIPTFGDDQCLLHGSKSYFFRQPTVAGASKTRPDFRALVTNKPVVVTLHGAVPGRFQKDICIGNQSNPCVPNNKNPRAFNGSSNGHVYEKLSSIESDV
T1 sequence (Q00959 23-1464): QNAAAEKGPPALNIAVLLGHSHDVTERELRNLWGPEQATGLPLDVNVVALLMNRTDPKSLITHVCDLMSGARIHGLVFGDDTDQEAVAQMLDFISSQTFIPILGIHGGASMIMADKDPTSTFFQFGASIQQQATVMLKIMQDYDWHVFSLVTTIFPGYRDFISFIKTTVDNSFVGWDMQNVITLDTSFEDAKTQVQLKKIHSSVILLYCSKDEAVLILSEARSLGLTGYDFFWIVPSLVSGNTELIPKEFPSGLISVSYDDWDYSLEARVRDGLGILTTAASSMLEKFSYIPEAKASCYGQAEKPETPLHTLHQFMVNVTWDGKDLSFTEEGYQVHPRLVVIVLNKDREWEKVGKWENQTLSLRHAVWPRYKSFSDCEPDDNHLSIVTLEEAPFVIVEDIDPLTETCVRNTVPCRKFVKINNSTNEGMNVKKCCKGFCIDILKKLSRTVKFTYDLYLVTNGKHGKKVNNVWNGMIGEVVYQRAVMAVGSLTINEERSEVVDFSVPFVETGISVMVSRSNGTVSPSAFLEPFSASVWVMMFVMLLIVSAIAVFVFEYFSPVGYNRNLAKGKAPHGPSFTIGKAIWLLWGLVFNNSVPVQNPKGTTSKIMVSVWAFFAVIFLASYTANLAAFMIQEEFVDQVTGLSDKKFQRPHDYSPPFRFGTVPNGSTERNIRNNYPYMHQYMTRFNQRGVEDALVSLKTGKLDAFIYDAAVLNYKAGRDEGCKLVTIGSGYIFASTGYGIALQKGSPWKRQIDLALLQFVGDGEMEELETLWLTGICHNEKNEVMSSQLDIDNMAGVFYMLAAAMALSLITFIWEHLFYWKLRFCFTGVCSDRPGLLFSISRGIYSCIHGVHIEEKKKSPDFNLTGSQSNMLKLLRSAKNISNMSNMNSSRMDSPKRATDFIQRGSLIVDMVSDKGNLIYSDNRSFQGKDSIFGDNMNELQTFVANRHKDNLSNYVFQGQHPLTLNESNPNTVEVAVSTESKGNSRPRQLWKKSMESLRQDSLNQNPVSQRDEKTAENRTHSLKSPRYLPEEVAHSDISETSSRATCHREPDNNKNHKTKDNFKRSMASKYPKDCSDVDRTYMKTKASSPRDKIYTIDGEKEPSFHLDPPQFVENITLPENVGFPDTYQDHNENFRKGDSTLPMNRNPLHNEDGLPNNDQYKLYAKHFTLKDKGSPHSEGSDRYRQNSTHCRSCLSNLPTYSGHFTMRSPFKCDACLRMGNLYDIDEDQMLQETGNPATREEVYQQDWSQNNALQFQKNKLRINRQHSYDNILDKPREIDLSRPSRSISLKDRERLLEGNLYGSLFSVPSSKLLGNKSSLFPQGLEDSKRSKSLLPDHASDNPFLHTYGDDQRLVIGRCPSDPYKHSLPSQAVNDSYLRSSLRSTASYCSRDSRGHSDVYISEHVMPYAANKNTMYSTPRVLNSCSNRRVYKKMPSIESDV

On to `COc1ccc(S(=O)(=O)N(CCO)c2ccccc2CN(C)C/C=C/c2ccc(Cl)cc2)cc1` [KN-93], for which, in the assay with ERK (5 μM in the incubation media), the “NMDA-dependent ERK activation” value was “had no effect”. For the same molecule, in the assay on ERK (cultured hippocampal neurons, 10 μM bicuculline), the “bicuculline-induced ERK activation” value is recorded as “altered neither”. Besides, in the assay with ERK (cultured hippocampal neurons, 100 μM NMDA), the “NMDA-induced (NMDAR-dependent) ERK activation” value is “altered neither”. For the same molecule, the “phosphorylation of SynGAP” value in the assay with SynGAP was “effectively suppressed”. In assay [1], the “phosphorylation of CREB” value is listed as “effectively suppressed”.

For `CC(C(O)c1ccc(O)cc1)N1CCC(Cc2ccccc2)CC1` (stereo not drawn) [ifenprodil], the inhibition (as a rule, the share of the control response that was lost under treatment) at 3 µM in the assay with ERK (Rattus norvegicus, Hippocampal neuron, 3 μM, hippocampal neurons 8 div, read-out: inhibition of NMDAR activated ERK) came to 70%. Moreover, the “degree of ifenprodil-sensitive ERK activation with days in culture” value with ERK (during neuron maturation) was “did not change significantly”. On NR2A, the “effect on NR2A-mediated current” value is “has no effect”. For the same molecule, the “inhibition of NR2B-mediated current” value at NR2B is given as “up to 80%”. Moreover, in the assay with NMDA receptor, the “decrease of the portion of the ifenprodil-sensitive NMDA current with days in culture” value was roughly 25%, the “frequency of spontaneous NMDAR EPSCs” value is recorded as “significantly reduced” and the “suppression of NMDAR current” value came out at 60%. In addition, the “inhibition of NMDA-mediated current” value with NMDA receptors (3-week-old cultures) was 20%-30. In addition, the “inhibition of NMDA-mediated current” value in the assay with NMDA receptors (young neuronal cultures) was roughly 70%.

B1: RasGRF1 amino acids 714-1244: C-terminal prey-containing sequence of RasGRF1 (protein, UniProt Q13972 714-1244, looked up, fragment)
chain: FASGQNNKLLYGEPPKSPRATRKFSSPPPLSITKTSSPSRRRKLSLNIPIITGGKALDLAALSCNSNGYTSMYSAMSPFSKATLDTSKLYVSSSFTNKIPDEGDTTPEKPEDPSALSKQSSEVSMREESDIDQNQSDDGDTETSPTKSPTTPKSVKNKNSSEFPLFSYNNGVVMTSCRELDNNRSALSAASAFAIATAGANEGTPNKEKYRRMSLASAGFPPDQRNGDKEFVIRRAATNRVLNVLRHWVSKHSQDFETNDELKCKVIGFLEEVMHDPELLTQERKAAANIIRTLTQEDPGDNQITLEEITQMAEGVKAEPFENHSALEIAEQLTLLDHLVFKKIPYEEFFGQGWMKLEKNERTPYIMKTTKHFNDISNLIASEIIRNEDINARVSAIEKWVAVADICRCLHNYNAVLEITSSMNRSAIFRLKKTWLKVSKQTKALIDKLQKLVSSEGRFKNLREALKNCDPPCVPYLGMYLTDLAFIEEGTPNYTEDGLVNFSKMRMISHIIREIRQFQQTAYKIEHQAKV
In the case of B1, the “binding to NR2B in vitro” value with full-length NR2B is “bound”.

B2: RasGRF1 amino acids 714-841: shorter peptide of the RasGRF1-specific sequence (protein, UniProt Q13972 714-841, looked up, fragment)
chain: FASGQNNKLLYGEPPKSPRATRKFSSPPPLSITKTSSPSRRRKLSLNIPIITGGKALDLAALSCNSNGYTSMYSAMSPFSKATLDTSKLYVSSSFTNKIPDEGDTTPEKPEDPSALSKQSSEVSMREE
Consider B2, for which the “binding to NR2B in vitro” value in the assay with full-length NR2B is given as “did not bind”.

B3: RasGRF1 amino acids 835-913: shorter peptide of the RasGRF1-specific sequence (protein, UniProt Q13972 835-913, looked up, fragment)
chain: EVSMREESDIDQNQSDDGDTETSPTKSPTTPKSVKNKNSSEFPLFSYNNGVVMTSCRELDNNRSALSAASAFAIATAGA
In the case of B3, the “binding to NR2B in vitro” value in the assay with full-length NR2B was “did not bind”.

B4: RasGRF1 amino acids 1-720: N-terminal portion of RasGRF1, which contains multiple functional domains (protein, UniProt Q13972 1-720, looked up, fragment)
chain: MQKGIRLNDGHVASLGLLARKDGTRKGYLSKRSSDNTKWQTKWFALLQNLLFYFESDSSSRPSGLYLLEGCVCDRAPSPKPALSAKEPLEKQHYFTVNFSHENQKALELRTEDAKDCDEWVAAIAHASYRTLATEHEALMQKYLHLLQIVETEKTVAKQLRQQIEDGEIEIERLKAEITSLLKDNERIQSTQTVAPNDEDSDIKKIKKVQSFLRGWLCRRKWKTIIQDYIRSPHADSMRKRNQVVFSMLEAEAEYVQQLHILVNNFLRPLRMAASSKKPPITHDDVSSIFLNSETIMFLHQIFYQGLKARISSWPTLVLADLFDILLPMLNIYQEFVRNHQYSLQILAHCKQNRDFDKLLKHYEAKPDCEERTLETFLTYPMFQIPRYILTLHELLAHTPHEHVERNSLDYAKSKLEELSRIMHDEVSETENIRKNLAIERMIIEGCEILLDTSQTFVRQGSLIQVPMSEKGKITRGRLGSLSLKKEGERQCFLFSKHLIICTRGSGGKLHLTKNGVISLIDCTLLEEPESTEEEAKGSGQDIDHLDFKIGVEPKDSPPFTVILVASSRQEKAAWTSDISQCVDNIRCNGLMMNAFEENSKVTVPQMIKRTREGTREAEMSRSDASLYCDDVDIRFSKTMNSCKVLQIRYASVERLLERLTDLRFLSIDFLNTFLHSYRVFTTAIVVLDKLITIYKKPISAIPARWLRSLELLFASGQNN
As for B4, the “binding to NR2B in vitro” value with full-length NR2B is recorded as “did not bind”.
